What is called melting point is the temperature of the solid-liquid transition.

Here are results for two compounds from patent US20120108668A1, “METABOLIC PROFILES” (priority 2009, published 2012).

Data set [1] relates to AIA Lewis rats. The data set can be described thus: Treatment study of the active compound in AIA Lewis rats; serum metabolite profile by GC/TOFMS and OPLS. Particulars: 1 mg, 3 mg or 10 mg active compound. In kind it is in vivo. The source says: This example illustrates the potency of the active compound and its therapeutically active acid addition salts for treatment of […].
AIA was induced in a total of 21 Lewis rats were included in the treatment study. Samples used consist of the following blood samples: • 22 samples from AIA Lewis rats (one of the rats was sampled twice) • 26 samples from treated AIA Lewis rats (five of the rats was sampled twice)
Different treatments were distributed in the AIA subjects as follows: • 5 subjects received 1 mg active compound • 5 subjects received 3 mg active compound • 6 subjects received 10 mg active compound • 5 subjects received 1 mg methotrexate Extraction of Metabolites from Serum
(§1) Extraction of metabolites from serum samples was essentially performed as the method described by A et al. (2005). 630 μl of MeOH:H2O (9:1 V:V) including internal standards was added to 70 μl of serum. The solution was vortex mixed for 10 s, kept on ice for 10 min, and then vigorously extracted at a frequency of 30 Hz for 3 min using a MM301 vibration Mill (Retsch GmbH & Co. KG, Haan, Germany. After […] on ice, the samples were centrifuged at 19 600 g for 10 min at 4° C. 200 μl of the supernatant was transferred to a GC vial, and 50 μl was transferred to a LC/MS vial and evaporated to dryness.
GC/TOFMS analysis and the Data processing of MS-data was carried out as in Example 1 above.

Data set [2] concerns AIA DA rats. The data set can be described thus: Treatment of RA in an AIA rat model with an experimental substance; serum metabolite profile by GC/TOFMS and OPLS-DA. In kind it is in vivo, Dark Agouti (DA) rats. The settings on record: treated vs untreated; for regulation of endogenous metabolite levels in treated animals (OPLS-DA loadings): FIG. 7B.
Excerpt: Treatment of RA in an AIA Rat Model with an Experimental Substance (Arginine)
AIA was induced in three Dark Agouti (DA) rats and the rats were then given treatment with an experimental substance.
The rat model samples used consist of the following blood samples: • 3 samples from AIA DA rats • 4 samples (one of the rats was sampled twice) from AIA DA rats treated with the experimental substance. Extraction of Metabolites from Serum
as §1
Prior GC/MS analysis the samples were derivatised with 30 μL of methoxyamine hydrochloride (15 mg mL-1) in pyridine by shaking for 10 min at 5° C., then incubating them for 16 h at room temperature. The samples were then trimethylsilylated by adding 30 μL of […] (MSTFA) with 1% TMCS and incubating them for 1 h at room temperature. After silylation, 30 μL of heptane (containing 0.5 μg methyl stearate as internal standard) was added. 0.1 μl of derivatized sample was injected split less by an Agilent 7683 Series Autosampler (Agilent, Atlanta; GA, USA) into an Agilent 6980 GC equipped with a 10 m×0.18 mm ID, fused silica capillary column chemically bonded with 0.18 μm DB5-MS stationary phase (J&W Scientific, Folsom, Calif., USA). The injector temperature was set at 270° C. Helium was used as carrier gas at a constant flow rate of 1 ml/min through the column. For every analysis, the purge time was set to 60 s at a purge flow rate of 20 ml min-1 and an equilibration time of 1 min. […]

In turn, `COc1ccc(C=NNC(=N)N)c(Cl)c1OC` [active compound, N-(2-chloro-3,4-dimethoxybenzylideneamino)guanidine] came in with a melting point of 198 to 200 °C. Also, the “levels of the metabolites associated with AD, effect of treatment” value in data set [1] was “significantly affected”.

Consider `N=C(N)NCCC[C@H](N)C(=O)O` [experimental substance, Arginine], for which, in data set [2] (FIG. 7A), the “separation of untreated and treated AIA animals in the OPLS-DA scores scatter plot (patterns of endogenous metabolites)” value is listed as “well separated”. For the same compound, the “regulation of endogenous metabolite levels in treated animals (OPLS-DA loadings)” value was “Almost all metabolites are up regulated” in data set [2] and “up regulation of many of the metabolites” in data set [2] (listed as administered substance).
